According to patent US20150368236A1, “2-(PYRIDIN-3-YL)-5-HETARYL-THIAZOLE COMPOUNDS CARRYING AN IMINE OR IMINE-DERIVED SUBSTITUENT FOR COMBATING INVERTEBRATE PESTS” (BASF SE, priority 2012, published 2015):

How the values were obtained:
Test in all cases: whole plant or invertebrate
Assay type in all cases: in vivo
[1] = system: vetch aphid (Megoura viciae); details: foliar, 120 h, sprayed broad bean leaf disks, adult aphids, 5 days, read-out: mortality in comparison with untreated controls
Experimental: For evaluating control of vetch aphid (Megoura viciae) through contact or systemic means the test unit consisted of 24-well-microtiter plates containing broad bean leaf disks.
The compounds were formulated using a solution containing 75% v/v water and 25% v/v DMSO. Different concentrations of formulated compounds were sprayed onto the leaf disks at 2.5 μl, using a custom built micro atomizer, at two replications.
After application, the leaf disks were air-dried and 5 to 8 adult aphids were placed on the leaf disks inside the microtiter plate wells. The aphids were then allowed to suck on the treated leaf disks and were incubated at about 23±1° C. and about 50±5% relative humidity for 5 days. Aphid mortality and fecundity were then visually assessed.

[2] = system: Cowpea Aphid (Aphis craccivora); details: colonized cowpea plants sprayed, population reduction assessed after 24, 72 and 120 hours, read-out: mortality in comparison with untreated controls
Experimental: The active compound was dissolved at the desired concentration in a mixture of 1:1 (vol:vol) distilled water:acetone. The test solution was prepared at the day of use. Potted cowpea plants colonized with approximately 100 to 150 aphids of various stages were sprayed after the pest population had been recorded. Population reduction was assessed after 24, 72, and 120 hours.

[3] = system: Cotton Aphid (Aphis gossypii); details: 120 h, infested cotton plants sprayed, after 5 days, read-out: mortality in comparison with untreated controls
Experimental: (§1) The active compounds were formulated in cyclohexanone as a 10′ 000 ppm solution supplied in 1.3 ml ABgene® tubes. These tubes were inserted into an automated electrostatic sprayer equipped with an atomizing nozzle and they served as stock solutions for which lower dilutions were made in 1:1 (vol:vol) water:aceton. A nonionic surfactant (Kinetic®) was included in the solution at a volume of 0.01% (v/v).
Cotton plants at the cotyledon stage were infested with aphids prior to treatment by placing a heavily infested leaf from the main aphid colony on top of each cotyledon. Aphids were allowed to transfer overnight to accomplish an infestation of 80-100 aphids per plant and the host leaf was removed. The infested plants were then sprayed by an automated electrostatic plant sprayer equipped with an atomizing spray nozzle. The plants were dried in the sprayer fume hood, removed from the sprayer, and then maintained in a growth room under fluorescent lighting in a 24-hr photoperiod at 25° C. and 20-40% relative humidity. Aphid mortality on the treated plants, relative to mortality on untreated control plants, was determined after 5 days.

[4] = system: green peach aphid (Myzus persicae); details: 72 h, in aphid diet under artificial membrane, adult aphids, 3 days, read-out: mortality in comparison with untreated controls
Description: For evaluating control of green peach aphid (Myzus persicae) through systemic means the test unit consisted of 96-well-microtiter plates containing liquid artificial diet under an artificial membrane.
The compounds were formulated using a solution containing 75% v/v water and 25% v/v DMSO. Different concentrations of formulated compounds were pipetted into the aphid diet, using a custom built pipetter, at two replications.
After application, 5 to 8 adult aphids were placed on the artificial membrane inside the microtiter plate wells. The aphids were then allowed to suck on the treated aphid diet and were incubated at about 23±1° C. and about 50±5% relative humidity for 3 days. Aphid mortality and fecundity was then visually assessed.

[5] = system: Silverleaf Whitefly (Bemisia Argentifolii); details: 72 h, sprayed cotton plants, whitefly adults, 3 days after treatment, read-out: mortality in comparison with untreated controls
Experimental: as §1, with “10,000” for “10′ 000”
Cotton plants at the cotyledon stage (one plant per pot) were sprayed by an automated electrostatic plant sprayer equipped with an atomizing spray nozzle. The plants were dried in the sprayer fume hood and then removed from the sprayer. Each pot was placed into a plastic cup and 10 to 12 whitefly adults (approximately 3 to 5 days old) were introduced. The insects were collected using an aspirator and 0.6 cm, nontoxic Tygon® tubing (R-3603) connected to a barrier pipette tip. The tip, containing the collected insects, was then gently inserted into the soil containing the treated plant, allowing insects to crawl out of the tip to reach the foliage for feeding. Cups were covered with a reusable screened lid (150-micron mesh polyester screen PeCap from Tetko, Inc.). […] Mortality was assessed 3 days after treatment, compared to untreated control plants.

C(=NOc1ccccc1)c1cccc(-c2cnc(-c3cccnc3)s2)n1 [Compound 1-10, 6-(2-Pyridin-3-yl-thiazol-5-yl)-pyridine-2-carbaldehyde-O-phenyloxime]
≥ 75%: mortality at 800 ppm [1] | mortality at 300 ppm [2]

CON=Cc1cccc(-c2cnc(-c3cccnc3)s2)n1 [Compound 1-1, 6-(2-Pyridin-3-yl-thiazol-5-yl)-pyridine-2-carbaldehyde-O-methyloxime]
≥ 75%: mortality at 300 ppm [3] | mortality at 800 ppm [1] | mortality at 800 ppm [4] | mortality at 300 ppm [2] | mortality at 300 ppm [5]
